Several values for one entry are separate records, joined by “and”; a condition that tells them apart may be missing. Identical values can stand only once.
Key:
HsBRISCΔLoop (Δ184–208) = HsBRISCΔLoop (Δ184–208) (Homo sapiens, UniProt P46736+Q15018+Q9NXR7); assay: HsBRISCΔLoop IQF DUB activity assay; assay type: biochemical
Protocol: (§1) IQF assays were performed in DUB reaction buffer containing 50 mM HEPES–NaOH pH 7.0, 100 mM NaCl, 0.1 mg ml^−1 BSA, 1 mM DTT and 0.03% v/v Brij-35. […] The final concentration of BRISC WT, all BRISC mutants, HsBRISCΔLoop, MmBRISC and DrBRISCΔNΔC was 1 nM. Other enzymes were tested at the following concentrations: 5 nM ARISC (FL), 10 nM CfBRISCΔNΔC, 250 nM AMSH* (ref. [43]), 500 nM USP2 and 1 μM trypsin (Sigma, 9002-07-7). For Michaelis–Menten experiments, 1 nM BRISC with 0–1 μM IQF K63-linked diubiquitin substrate was used. Michaelis–Menten analyses and Lineweaver–Burk plots were calculated using GraphPad Prism (version 9.0).
(§2) To assess enzymatic activity, BRISC complexes were diluted to concentrations between 1 nM and 50 nM. […] Then, 20-μl enzyme reactions were carried out in 384-well black flat-bottom low-flange plates (Corning, 35373). DUB activity was measured using IQF K63-linked diubiquitin (LifeSensors, DU6303) at 50 nM. Cleaved diubiquitin was monitored by measuring fluorescence intensity (excitation, 544 nm; emission, 575 nm; dichroic mirror, 560 nm). Fluorescence intensity was measured every minute for 30 min at 30 °C. Fluorescence intensity units were plotted against time to generate a linear reaction progress curve, where the initial velocity (V0) corresponds to the gradient of the curve (typically achieved within 15 min). IC50 values were calculated using the GraphPad Prism (version 9.0) built-in dose–response equation for inhibitor concentration versus response (variable slope).

BRISC BRCC45 R137A+F140A = BRISC BRCC45 R137A+F140A (Homo sapiens, UniProt P46736+Q15018+Q9NXR7, F140A/R137A); assay: BRISC mutant IQF assay: BRCC45 R137A+F140A; assay type: biochemical
Protocol: as §1
To assess enzymatic activity, BRISC complexes were diluted to concentrations between 1 nM and 50 nM. […] DUB activity was measured using IQF K63-linked diubiquitin (LifeSensors, DU6303) at 50 nM. Cleaved diubiquitin was monitored by measuring fluorescence intensity (excitation, 544 nm; emission, 575 nm; dichroic mirror, 560 nm). Fluorescence intensity was measured every minute for 30 min at 30 °C. Fluorescence intensity units were plotted against time to generate a linear reaction progress curve, where the initial velocity (V0) corresponds to the gradient of the curve (typically achieved within 15 min). IC50 values were calculated using the GraphPad Prism (version 9.0) built-in dose–response equation for inhibitor concentration versus response (variable slope).

BRISC BRCC45 D248R = BRISC BRCC45 D248R (Homo sapiens, UniProt P46736+Q15018+Q9NXR7, D248R); assay: BRISC mutant IQF assay: BRCC45 D248R; assay type: biochemical
Protocol: as §1, §2

DrBRISCΔNΔC = DrBRISCΔNΔC IQF DUB activity assay; assay type: biochemical, zebrafish (Danio rerio)
Protocol: as §1, §2

BRISC BRCC36 L169R = BRISC BRCC36 L169R (Homo sapiens, UniProt P46736+Q15018+Q9NXR7, L169R); assay: BRISC mutant IQF assay: BRCC36 L169R; assay type: biochemical
Protocol: as §1, §2

BRISC BRCC36 R167A = BRISC BRCC36 R167A (Homo sapiens, UniProt P46736+Q15018+Q9NXR7, R167A); assay: BRISC mutant IQF assay: BRCC36 R167A; assay type: biochemical
Protocol: as §1, §2

BRISC BRCC36 L169A = BRISC BRCC36 L169A (Homo sapiens, UniProt P46736+Q15018+Q9NXR7, L169A); assay: BRISC mutant IQF assay: BRCC36 L169A; assay type: biochemical
Protocol: as §1, §2

[1] = FX-171-C 0.035 μM, read-out: Normalised V0
[2] = FX-171-C 0.0035 μM, read-out: Normalised V0
[3] = FX-171-C 0.35 μM, read-out: Normalised V0
[4] = FX-171-C 3.1 μM, read-out: Normalised V0
[5] = FX-171-C 100 μM, read-out: Normalised V0

remaining activity at 0.013 µM (HsBRISCΔLoop (Δ184–208); HsBRISCΔLoop, FX-171-C 0.013 μM, read-out: Normalised V0): 87.6%
remaining activity at 0.02 µM (HsBRISCΔLoop (Δ184–208); HsBRISCΔLoop, FX-171-C 0.02 μM, read-out: Normalised V0): 103%
remaining activity at 0.0399999 µM (HsBRISCΔLoop (Δ184–208); HsBRISCΔLoop, FX-171-C 0.0399999 μM, read-out: Normalised V0): 90.4%
remaining activity at 0.0599997 µM (HsBRISCΔLoop (Δ184–208); HsBRISCΔLoop, FX-171-C 0.0599997 μM, read-out: Normalised V0): 102%
remaining activity at 0.0799994 µM (HsBRISCΔLoop (Δ184–208); HsBRISCΔLoop, FX-171-C 0.0799994 μM, read-out: Normalised V0): 93.6%
remaining activity at 0.119998 µM (HsBRISCΔLoop (Δ184–208); HsBRISCΔLoop, FX-171-C 0.119998 μM, read-out: Normalised V0): 102%
remaining activity at 0.199996 µM (HsBRISCΔLoop (Δ184–208); HsBRISCΔLoop, FX-171-C 0.199996 μM, read-out: Normalised V0): 84.1%
remaining activity at 0.499975 µM (HsBRISCΔLoop (Δ184–208); HsBRISCΔLoop, FX-171-C 0.499975 μM, read-out: Normalised V0): 99%
remaining activity at 0.799937 µM (HsBRISCΔLoop (Δ184–208); HsBRISCΔLoop, FX-171-C 0.799937 μM, read-out: Normalised V0): 98.4%
remaining activity at 1.25984 µM (HsBRISCΔLoop (Δ184–208); HsBRISCΔLoop, FX-171-C 1.25984 μM, read-out: Normalised V0): 86.2%
remaining activity at 1.9996 µM (HsBRISCΔLoop (Δ184–208); HsBRISCΔLoop, FX-171-C 1.9996 μM, read-out: Normalised V0): 93.3%
remaining activity at 3.159 µM (HsBRISCΔLoop (Δ184–208); HsBRISCΔLoop, FX-171-C 3.159 μM, read-out: Normalised V0): 82%
remaining activity at 5.19739 µM (HsBRISCΔLoop (Δ184–208); HsBRISCΔLoop, FX-171-C 5.19739 μM, read-out: Normalised V0): 89%
remaining activity at 7.99364 µM (HsBRISCΔLoop (Δ184–208); HsBRISCΔLoop, FX-171-C 7.99364 μM, read-out: Normalised V0): 69.7%
remaining activity at 12.7839 µM (HsBRISCΔLoop (Δ184–208); HsBRISCΔLoop, FX-171-C 12.7839 μM, read-out: Normalised V0): 65.1%
remaining activity at 19.96 µM (HsBRISCΔLoop (Δ184–208); HsBRISCΔLoop, FX-171-C 19.96 μM, read-out: Normalised V0): 50.7%
remaining activity at 31.4999 µM (HsBRISCΔLoop (Δ184–208); HsBRISCΔLoop, FX-171-C 31.4999 μM, read-out: Normalised V0): 45.4%
remaining activity at 50.147 µM (HsBRISCΔLoop (Δ184–208); HsBRISCΔLoop, FX-171-C 50.147 μM, read-out: Normalised V0): 24.3%
remaining activity at 79.7601 µM (HsBRISCΔLoop (Δ184–208); HsBRISCΔLoop, FX-171-C 79.7601 μM, read-out: Normalised V0): 18.2%
IC50 (BRISC BRCC45 R137A+F140A): 52 µM
remaining activity at 0.035 µM (BRISC BRCC45 R137A+F140A; [1]): 79.9%
IC50 (BRISC BRCC45 D248R): > 100 µM
inhibitor sensitivity vs BRISC WT (BRISC BRCC45 D248R): reduced sensitivity to inhibition
remaining activity at 0.0035 µM (BRISC BRCC45 D248R; [2]): 91.7%
remaining activity at 0.035 µM (BRISC BRCC45 D248R; [1]): 97.4%
remaining activity at 0.35 µM (BRISC BRCC45 D248R; [3]): 91.7%
IC50 (BRISC BRCC36 L169R): 75 µM
reduction of inhibition over wild-type complex (BRISC BRCC36 L169R): > 100 fold
remaining activity at 0.0035 µM (BRISC BRCC36 L169R; [2]): 98.8%
remaining activity at 0.035 µM (BRISC BRCC36 L169R; [1]): 96.8%
remaining activity at 0.35 µM (BRISC BRCC36 L169R; [3]): 93.7%
remaining activity at 3.1 µM (BRISC BRCC36 L169R; [4]): 89.5%
remaining activity at 25 µM (BRISC BRCC36 L169R; FX-171-C 25 μM, read-out: Normalised V0): 88%
IC50 (BRISC BRCC36 R167A): 1.4 µM
inhibitor sensitivity vs BRISC WT (BRISC BRCC36 R167A): remained inhibitor sensitive
remaining activity at 0.035 µM (BRISC BRCC36 R167A; [1]): 98.5%
remaining activity at 0.35 µM (BRISC BRCC36 R167A; [3]): 78.4%
remaining activity at 3.1 µM (BRISC BRCC36 R167A; [4]): 25.5%
remaining activity at 6.25 µM (BRISC BRCC36 R167A; FX-171-C 6.25 μM, read-out: Normalised V0): 20.8%
remaining activity at 12.5 µM (BRISC BRCC36 R167A; FX-171-C 12.5 μM, read-out: Normalised V0): 15%
remaining activity at 100 µM (BRISC BRCC36 R167A; [5]): 4.9%
IC50 (BRISC BRCC36 L169A): 33 µM
reduction of inhibition over wild-type complex (BRISC BRCC36 L169A): > 100 fold
remaining activity at 0.035 µM (BRISC BRCC36 L169A; [1]): 94.7%
remaining activity at 3.1 µM (BRISC BRCC36 L169A; [4]): 98.4%
remaining activity at 50 µM (BRISC BRCC36 L169A; FX-171-C 50 μM, read-out: Normalised V0): 40.6%
remaining activity at 100 µM (BRISC BRCC36 L169A; [5]): 22.1%
remaining activity at 200 µM (BRISC BRCC36 L169A; FX-171-C 200 μM, read-out: Normalised V0): 10.5%
SMILES: O=C(NC1C2CNCC21)c1nn(C(=O)c2c(Cl)cccc2Cl)cc1NC(=O)c1c(Cl)cccc1Cl (stereo not shown) [FX-171-C]
change of inhibitor sensitivity on deletion of BRCC36 loop (184–208) (HsBRISCΔLoop (Δ184–208); vs human BRISC): reduced inhibitor sensitivity approximately tenfold
Normalised V0 (DrBRISCΔNΔC; FX-171-C 0.013 μM): 0.983 and 1.045 and 1.007 and 1.076 and 0.9046 and 1
Normalised V0 (DrBRISCΔNΔC; FX-171-C 0.02 μM): 0.9073 and 0.9513 and 0.9154
Normalised V0 (DrBRISCΔNΔC; FX-171-C 0.0399999 μM): 0.972 and 1.086 and 0.9939
Normalised V0 (DrBRISCΔNΔC; FX-171-C 0.0599997 μM): 1 and 1.042 and 0.951
Normalised V0 (DrBRISCΔNΔC; FX-171-C 0.0799994 μM): 1.257 and 1.072 and 1.014
Normalised V0 (DrBRISCΔNΔC; FX-171-C 0.119998 μM): 0.9667 and 1.1184 and 0.9769
Normalised V0 (DrBRISCΔNΔC; FX-171-C 0.199996 μM): 1.0445 and 1.023 and 0.9962
Normalised V0 (DrBRISCΔNΔC; FX-171-C 0.499975 μM): 0.9714 and 1.052 and 0.9507
Normalised V0 (DrBRISCΔNΔC; FX-171-C 0.799937 μM): 1.009 and 0.9333 and 0.8977
Normalised V0 (DrBRISCΔNΔC; FX-171-C 1.25984 μM): 0.9862 and 1.093 and 0.9451
Normalised V0 (DrBRISCΔNΔC; FX-171-C 1.9996 μM): 0.9182 and 0.9951 and 0.8213
Normalised V0 (DrBRISCΔNΔC; FX-171-C 3.159 μM): 1.042 and 0.9998 and 0.8593
Normalised V0 (DrBRISCΔNΔC; FX-171-C 5.19739 μM): 0.6448 and 0.9953 and 0.847
Normalised V0 (DrBRISCΔNΔC; FX-171-C 7.99364 μM): 0.9454 and 0.9127 and 0.9517
Normalised V0 (DrBRISCΔNΔC; FX-171-C 12.7839 μM): 0.9358 and 1.024 and 0.8831
Normalised V0 (DrBRISCΔNΔC; FX-171-C 19.96 μM): 0.6505 and 0.8985 and 0.8711
Normalised V0 (DrBRISCΔNΔC; FX-171-C 31.4999 μM): 0.752 and 0.7818 and 0.7739
Normalised V0 (DrBRISCΔNΔC; FX-171-C 50.147 μM): 0.6953 and 0.6278 and 0.7138
Normalised V0 (DrBRISCΔNΔC; FX-171-C 79.7601 μM): 0.6671 and 0.5066 and 0.3963
Normalised V0 (DrBRISCΔNΔC; FX-171-C 125.99 μM): 0.4739 and 0.3651 and 0.4262
Normalised V0 (DrBRISCΔNΔC; FX-171-C 199.922 μM): 0.313 and 0.2853 and 0.3043

Source: PMC7617869, “Molecular glues that inhibit deubiquitylase activity and inflammatory signaling” (Nature Structural & Molecular Biology, 2025)
